This is an account of results in ChEMBL document CHEMBL5465560, “Selectivity Literature for EUbOPEN Chemogenomic Library” (2024).

Assay [1] deals with Tyrosine-protein kinase receptor Tie-1 (Homo sapiens) (UniProt P35590). Conditions: at 10 µM.
Assay [2] concerns the target Atypical kinase COQ8A, mitochondrial (Homo sapiens, UniProt Q8NI60). Description: Selectivity interaction (KinomeScan (DiscoverX)) EUB0001049a ADCK3. Conditions: at 1 µM.
Assay [3] concerns the target T1, cGMP-dependent protein kinase 1 (Homo sapiens) (UniProt Q13976).
T1 sequence (whole entry): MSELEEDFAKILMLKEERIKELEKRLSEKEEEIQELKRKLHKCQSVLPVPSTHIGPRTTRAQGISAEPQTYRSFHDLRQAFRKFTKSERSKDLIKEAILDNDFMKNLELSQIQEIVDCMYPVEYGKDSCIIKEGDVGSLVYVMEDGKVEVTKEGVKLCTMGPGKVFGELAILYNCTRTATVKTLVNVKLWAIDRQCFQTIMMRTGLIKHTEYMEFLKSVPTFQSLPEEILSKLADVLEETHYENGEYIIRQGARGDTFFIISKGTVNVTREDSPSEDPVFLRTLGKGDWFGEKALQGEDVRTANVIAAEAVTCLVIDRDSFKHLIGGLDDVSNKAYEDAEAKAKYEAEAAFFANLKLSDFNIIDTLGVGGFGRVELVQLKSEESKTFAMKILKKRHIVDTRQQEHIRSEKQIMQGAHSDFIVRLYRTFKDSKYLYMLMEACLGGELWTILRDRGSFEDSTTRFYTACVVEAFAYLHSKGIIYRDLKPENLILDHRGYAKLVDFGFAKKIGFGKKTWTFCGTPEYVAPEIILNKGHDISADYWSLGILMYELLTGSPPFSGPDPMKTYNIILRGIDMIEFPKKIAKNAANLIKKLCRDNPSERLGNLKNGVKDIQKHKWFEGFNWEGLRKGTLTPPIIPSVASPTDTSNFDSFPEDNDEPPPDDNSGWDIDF
Description: Selectivity interaction (KinomeScan (DiscoverX)) EUB0000655a PRKG1. Conditions: at 10 µM.

Assay [4] deals with cAMP-dependent protein kinase catalytic subunit alpha (Homo sapiens, UniProt P17612). As to the kind of experiment: Selectivity interaction (Kinase counterscreening (biochemical assay)) EUB0000604a PRKACA. On the technique in general: The purpose of a counterscreen is to sort out artefacts and off-target activity.
Assay [5] deals with Mitogen-activated protein kinase 11 (Homo sapiens) (UniProt Q15759). Description: Selectivity interaction (KinomeScan (DiscoverX)) EUB0000045b MAPK11.
Mitogen-activated protein kinase 11 (Homo sapiens), sequence (Q15759 whole entry): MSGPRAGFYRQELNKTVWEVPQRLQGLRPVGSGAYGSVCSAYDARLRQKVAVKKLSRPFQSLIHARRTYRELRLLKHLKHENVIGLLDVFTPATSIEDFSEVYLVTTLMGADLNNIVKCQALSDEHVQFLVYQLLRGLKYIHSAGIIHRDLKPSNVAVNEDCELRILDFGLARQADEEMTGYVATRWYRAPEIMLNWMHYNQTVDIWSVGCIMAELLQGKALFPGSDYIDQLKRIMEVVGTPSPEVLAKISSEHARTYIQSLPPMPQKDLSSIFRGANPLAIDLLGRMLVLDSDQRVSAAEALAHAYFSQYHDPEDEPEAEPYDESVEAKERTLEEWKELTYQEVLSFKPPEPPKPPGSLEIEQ
Assay [6] deals with T2, Tyrosine-protein kinase JAK3 (Homo sapiens) (UniProt P52333).
T2 sequence (whole entry): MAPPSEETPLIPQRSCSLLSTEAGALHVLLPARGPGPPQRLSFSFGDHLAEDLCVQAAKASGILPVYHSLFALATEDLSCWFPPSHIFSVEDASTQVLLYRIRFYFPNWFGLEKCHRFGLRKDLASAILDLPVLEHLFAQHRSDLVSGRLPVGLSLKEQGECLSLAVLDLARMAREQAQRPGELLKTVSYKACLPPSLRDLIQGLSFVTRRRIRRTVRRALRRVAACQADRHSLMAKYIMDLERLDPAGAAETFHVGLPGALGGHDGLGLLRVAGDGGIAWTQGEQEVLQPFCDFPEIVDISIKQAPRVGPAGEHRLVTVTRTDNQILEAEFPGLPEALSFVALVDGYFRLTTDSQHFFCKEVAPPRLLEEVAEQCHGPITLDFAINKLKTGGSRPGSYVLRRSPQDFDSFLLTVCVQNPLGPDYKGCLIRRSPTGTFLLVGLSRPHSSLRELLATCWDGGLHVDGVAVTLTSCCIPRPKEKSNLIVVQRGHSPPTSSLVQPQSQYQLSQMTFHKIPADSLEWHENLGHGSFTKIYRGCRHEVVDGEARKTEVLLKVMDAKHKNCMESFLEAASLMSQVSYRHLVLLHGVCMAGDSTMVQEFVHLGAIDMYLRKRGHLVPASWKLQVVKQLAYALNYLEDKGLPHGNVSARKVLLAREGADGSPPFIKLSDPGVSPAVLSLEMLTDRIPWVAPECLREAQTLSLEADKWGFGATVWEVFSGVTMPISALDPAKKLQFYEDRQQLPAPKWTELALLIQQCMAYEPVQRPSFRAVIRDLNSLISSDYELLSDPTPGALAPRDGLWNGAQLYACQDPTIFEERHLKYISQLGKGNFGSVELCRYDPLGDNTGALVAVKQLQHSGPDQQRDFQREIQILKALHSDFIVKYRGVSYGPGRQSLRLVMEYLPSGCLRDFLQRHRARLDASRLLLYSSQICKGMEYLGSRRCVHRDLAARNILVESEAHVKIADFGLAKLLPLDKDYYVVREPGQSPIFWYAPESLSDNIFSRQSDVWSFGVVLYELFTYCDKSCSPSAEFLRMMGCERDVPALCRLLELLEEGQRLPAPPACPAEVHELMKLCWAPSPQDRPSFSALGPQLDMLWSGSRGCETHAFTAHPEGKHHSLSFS
As to the kind of experiment: Selectivity interaction (Kinase panel (Z-LYTE Assay)) EUB0001632a JAK3. Conditions: at 10 µM.

For assay [7], the target named is High affinity nerve growth factor receptor (Homo sapiens, UniProt P04629). Description: Selectivity interaction (SelectScreen profiling (Invitrogen)) EUB0000607a NTRK1. Conditions: at 2 µM.
High affinity nerve growth factor receptor, sequence (P04629 33-796 limits assumed): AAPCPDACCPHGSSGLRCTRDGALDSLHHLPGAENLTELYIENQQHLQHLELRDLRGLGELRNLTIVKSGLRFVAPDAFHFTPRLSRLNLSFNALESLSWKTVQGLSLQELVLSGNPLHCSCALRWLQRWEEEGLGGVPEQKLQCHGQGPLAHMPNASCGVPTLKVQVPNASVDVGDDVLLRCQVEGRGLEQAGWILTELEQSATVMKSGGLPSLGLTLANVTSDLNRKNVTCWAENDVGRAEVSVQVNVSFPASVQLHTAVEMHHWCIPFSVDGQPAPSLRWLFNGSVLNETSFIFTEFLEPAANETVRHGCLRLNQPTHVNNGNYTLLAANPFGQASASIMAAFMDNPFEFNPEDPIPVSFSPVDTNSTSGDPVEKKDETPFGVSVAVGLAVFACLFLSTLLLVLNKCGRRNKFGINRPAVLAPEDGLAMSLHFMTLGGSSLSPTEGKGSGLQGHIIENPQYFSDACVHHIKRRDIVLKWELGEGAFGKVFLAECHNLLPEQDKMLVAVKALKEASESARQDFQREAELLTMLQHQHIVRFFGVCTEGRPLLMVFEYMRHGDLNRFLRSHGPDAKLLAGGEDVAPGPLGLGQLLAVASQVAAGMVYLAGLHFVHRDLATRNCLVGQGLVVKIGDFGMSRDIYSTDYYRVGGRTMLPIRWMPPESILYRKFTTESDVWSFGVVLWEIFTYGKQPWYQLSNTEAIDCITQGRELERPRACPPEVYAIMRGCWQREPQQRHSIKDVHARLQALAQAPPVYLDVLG

For orientation: Ki means the dissociation constant of the complex between target and ligand, obtained from inhibition or displacement. A low value points to higher affinity.

SMILES strings stand for the structures.

Tyrosine-protein kinase receptor Tie-1 (Homo sapiens), sequence (P35590 whole entry): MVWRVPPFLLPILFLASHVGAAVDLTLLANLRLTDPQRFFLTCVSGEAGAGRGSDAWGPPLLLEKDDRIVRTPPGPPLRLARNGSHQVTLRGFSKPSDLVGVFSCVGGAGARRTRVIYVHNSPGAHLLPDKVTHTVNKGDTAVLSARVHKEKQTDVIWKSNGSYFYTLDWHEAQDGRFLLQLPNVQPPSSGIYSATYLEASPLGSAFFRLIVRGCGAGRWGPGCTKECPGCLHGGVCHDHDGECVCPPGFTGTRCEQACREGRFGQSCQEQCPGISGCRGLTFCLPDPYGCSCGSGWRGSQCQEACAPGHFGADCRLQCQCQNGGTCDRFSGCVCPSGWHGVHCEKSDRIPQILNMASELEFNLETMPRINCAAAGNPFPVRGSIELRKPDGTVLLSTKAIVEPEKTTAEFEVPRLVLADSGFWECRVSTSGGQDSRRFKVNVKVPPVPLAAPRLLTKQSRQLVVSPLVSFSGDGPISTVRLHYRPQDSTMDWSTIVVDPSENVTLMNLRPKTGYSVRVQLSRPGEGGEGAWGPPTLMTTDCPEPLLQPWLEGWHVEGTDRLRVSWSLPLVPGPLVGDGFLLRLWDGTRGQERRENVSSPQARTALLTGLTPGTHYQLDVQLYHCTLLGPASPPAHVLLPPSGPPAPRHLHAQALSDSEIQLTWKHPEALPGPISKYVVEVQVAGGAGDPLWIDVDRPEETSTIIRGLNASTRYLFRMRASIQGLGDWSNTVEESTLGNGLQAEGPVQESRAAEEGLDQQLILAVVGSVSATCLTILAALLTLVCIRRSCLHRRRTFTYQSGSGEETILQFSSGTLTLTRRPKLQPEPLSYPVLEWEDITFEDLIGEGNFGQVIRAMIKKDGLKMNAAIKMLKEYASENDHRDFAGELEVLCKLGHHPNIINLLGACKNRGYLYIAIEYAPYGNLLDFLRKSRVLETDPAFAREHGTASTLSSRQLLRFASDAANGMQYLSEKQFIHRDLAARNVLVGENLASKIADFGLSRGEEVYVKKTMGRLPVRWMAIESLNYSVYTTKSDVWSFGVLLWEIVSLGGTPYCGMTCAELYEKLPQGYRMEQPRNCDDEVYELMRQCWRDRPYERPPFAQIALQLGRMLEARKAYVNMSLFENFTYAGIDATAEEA
Atypical kinase COQ8A, mitochondrial, sequence (Q8NI60 163-647 limits assumed): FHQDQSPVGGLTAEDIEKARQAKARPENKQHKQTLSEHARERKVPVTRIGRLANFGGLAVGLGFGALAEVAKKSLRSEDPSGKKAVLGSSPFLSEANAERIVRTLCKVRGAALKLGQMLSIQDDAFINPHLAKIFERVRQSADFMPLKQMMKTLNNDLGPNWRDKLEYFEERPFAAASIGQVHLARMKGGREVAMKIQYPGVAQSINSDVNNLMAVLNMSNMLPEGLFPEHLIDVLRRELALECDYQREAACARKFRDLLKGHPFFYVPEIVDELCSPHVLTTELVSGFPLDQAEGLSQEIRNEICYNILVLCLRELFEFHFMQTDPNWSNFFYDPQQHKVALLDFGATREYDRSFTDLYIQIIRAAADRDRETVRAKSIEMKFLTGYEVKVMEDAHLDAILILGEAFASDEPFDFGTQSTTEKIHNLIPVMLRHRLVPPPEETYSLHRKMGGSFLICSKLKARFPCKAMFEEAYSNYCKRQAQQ

In turn, `Cc1cc([C@@H](C)Nc2ccccc2C(=O)O)c2nc(N3CCOCC3)cc(=O)n2c1` [AZD-6482] came in with a % of control in assay [1] of 100%.

The compound `COc1cc(Nc2nc(C)cc(-c3cnn4nc(OC)ccc34)n2)cc(C(F)(F)F)c1` returned a % of control in assay [2] of 91%.

As to `CN(C)CCOc1ccc(-c2nc(-c3ccncc3)c(-c3ccc4c(c3)CC/C4=N\O)[nH]2)cc1`, in assay [3], the % of control is 89%.

For the compound `Cc1cnc(Nc2ccc(F)cc2Cl)nc1-c1c[nH]c(C(=O)N[C@H](CO)c2cccc(Cl)c2)c1`, the Ki in assay [4] was greater than 4 µM.

For `C=CC(=O)Nc1cc(-n2c(=O)ccc3cnc4ccc(-c5ccc(NS(C)(=O)=O)cc5)cc4c32)ccc1C`, the values for the % of control in assay [5] (at 1 µM) and in assay [5] (at 10 µM) were 90% and 95%, respectively.

In turn, `Cn1cc(-n2cnc3c(NCc4nc5cc(Cl)c(Cl)cc5[nH]4)nc(N4CCOCC4)nc32)cn1` yielded a % of control in assay [6] of 16.9%.

With `CNC(=O)Nc1ccc(-c2nc(N3CC4CCC(C3)O4)c3cnn(C4CCC5(CC4)OCCO5)c3n2)cc1`, in assay [7], the % of inhibition was found to be 7%.
